From patent publication US4105659A, “1,2,3,4,5,6-Hexahydro-2,6-methano-3-benzazocines” (Sterling Drug Inc., priority 1964, dated 1978)
Structures can show the parent of a compound that is named as a salt. Where two headings read alike, the source gives them in different places.

Tests used:
[1] = tested on: analgesic effect of meperidine hydrochloride; experiment: Antagonism of meperidine analgesia, modified D'Amour-Smith test; conditions: for ED50: Rattus norvegicus, read-out: dosage of antagonist which reduced the analgesic effect of meperidine by approximately 50 per cent; for dosage of antagonist which reduced the analgesic effect of meperidine by approximately 50 per cent: subcutaneous, rats, lactic acid acid-addition salt, versus 60 mg./kg. meperidine hydrochloride
[2] = tested on: analgesic effect of morphine sulfate; experiment: Antagonism of morphine analgesia, modified D'Amour-Smith test; conditions: for dosage of antagonist which reduced the analgesic effect of morphine by approximately 50 per cent: subcutaneous, rats, lactic acid acid-addition salt, versus 15 mg./kg. morphine sulfate; for ED50: Rattus norvegicus, sc, read-out: dosage of antagonist which reduced the analgesic effect of morphine by approximately 50 per cent
[3] = Solubility, pH of solution and precipitation on pH adjustment or dilution; assay type: physicochemical; conditions: for pH at which a precipitate formed: 1 percent solution, addition of N/10 sodium hydroxide
Method: A. A mixture of 8.7 g. of racemic cis 1,2,3,4,5,6-hexahydro-6,11-dimethyl-8-hydroxy-2,6-methano-3-benzazocine (which is also known as racemic cis 2'-hydroxy-5,9-dimethyl-6,7-benzomorphan), 6.0 g of 1-bromo-3-methyl-2-butene, 5.0 g. of sodium bicarbonate, and 125 ml. of N,N-dimethylformamide was stirred and refluxed for approximately 41/2 hours. The reaction mixture was then filtered, and the solid on the filter was washed with ethanol. The filtrate and the wash liquor were combined, concentrated under reduced pressure, and then extracted with chloroform. The chloroform extract was concentrated under reduced pressure to yield a syrup which weighed 15.8 g. This syrup was dissolved in 120 ml. of diethyl ether and the resulting solution was filtered to remove approximately one-half gram of a brown amorphous solid. The filtrate was extracted with a mixture of 5 ml. of concentrated hydrochloric acid and 20 ml. of water. To the extract there was added 5 ml. of concentrated ammonium hydroxide solution and ice. A pale tan syrup separated from solution and after stirring, this syrup solidified. The resulting pale tan solid was collected and dried; it weighed 10.6 g. After two recrystallizations from a mixture of methyl alcohol and water, with charcoaling, this solid weighed 8.2 g. and melted at 145°-147° C. The product thus obtained was racemic cis 1,2,3,4,5,6-hexahydro-3-(3-methyl-2-butenyl)-6,11-dimethyl-8-hydroxy-2,6-methano-3-benzazocine (Formula II: Y = --CH2 --CH=C(CH3)2; R^3 = --H), having the molecular formula C19 H27 NO. This product was soluble in a mixture of 0.35 ml. of N/2 hydrochloric acid and 0.15 ml. of water to the extent of 10 percent, the pH of the 1 percent solution being 2.80; and when the pH of the 1 percent solution was gradually raised by addition of N/10 sodium hydroxide solution, a precipitate formed at pH 5.4. When the base was converted to the hydrochloride and was then regenerated from this salt it melted at 151°-153° C. The hydrochloride of this base melted at 245°-247° C. (dec.). and the cyclohexylsulfamate of this base melted at 163°-166° C. The base formed a grayish-yellowtannate.
The racemic trans product was converted to its hydrobromide, having the molecular formula C19 H27 NO·HBr, which was obtained as white needles which melted at 240°-241° C.
The dextro trans product was converted to its hydrochloride, having the molecular formula C19 H27 NO·HCl, which was obtained as white crystals which melted at 254°-255° C.
The levo trans product was converted to its hydrochloride, having the molecular formula C19 H27 NO·HCl, which was obtained as white crystals which melted at 254°-255° C. (dec.); this hydrochloride was soluble in water to the extent of 5 percent, the pH of a 1 percent aqueous solution being 5.7, a precipitate being formed when the 1 percent aqueous solution was adjusted to 7.0 by addition of N/10 sodium hydroxide solution.
A. A mixture of 9.25 g. of racemic cis 1,2,3,4,5,6-hexahydro-6-ethyl-11-methyl-8-hydroxy-2,6-methano-3-benzazocine, 6.0 g. of 1-bromo-3-methyl-2-butene, 125 ml. of N,N-dimethylformamide, and 5.0 g. of sodium bicarbonate was stirred and refluxed for approximately 41/2 hours. The reaction mixture was then filtered, and the solid collected on the filter was washed with ethanol. The filtrate and the wash liquor were combined and concentrated under reduced pressure. To the resulting residue there was added 50 ml. of diethyl ether, and the mixture was filtered. Approximately 0.6 g. of solid was collected on the filter, and 8.2 g. of brown solid separated from the filtrate and was collected by filtration. These two crops of solid (8.8 g.) were combined, 25 ml. of methanol was added, and the mixture was boiled. Only a small portion of the solid dissolved. This mixture was mixed with 25 ml. of water and chilled. The mixture was filtered to collect 8.3 g. of pale tan solid which melted at 156°-158° C. […]

[4] = Clinical analgesia in human subjects; assay type: in vivo; conditions: for dose approximately equivalent to 10 mg. of morphine sulfate as an analgesic: parenterally in humans; for analgesia in human subjects: parenterally
Method: In human subjects, however, the compounds of Formulas I and II are valuable and effective agents for producing analgesia when administered in the general range of about 10 to 500 mg. per 70 kg. of subject weight, the dosage depending of course on the particular compound, the mode of administration, and the like. The following clinical results which were obtained in human subjects are illustrative. For oral administration the free base was used, and for parenteral (usually intramuscular) administration an aqueous solution of the lactate salt was used; the dosages are expressed in each instance in terms of milligrams of base per 70 kilograms of body weight of the human subject.

[5] = ethanol, organic solvent or mixture, read-out: solubility in ethanol
[6] = water, read-out: solubility in water

`CC(C)=CCN1CC[C@@]2(C)c3cc(O)ccc3C[C@@H]1[C@@H]2C` (relative stereo) [4A (cyclohexylsulfamate), racemic cis 1,2,3,4,5,6-hexahydro-3-(3-methyl-2-butenyl)-6,11-dimethyl-8-hydroxy-2,6-methano-3-benzazocine] showed an ED50 ([1]; po) of 125 mg/kg.

In the case of `CC(C)=CCN1CC[C@]2(C)c3cc(O)ccc3C[C@H]1C2C` (relative stereo) [4D (dextro), cis 1,2,3,4,5,6-hexahydro-3-(3-methyl-2-butenyl)-6,11-dimethyl-8-hydroxy-2,6-methano-3-benzazocine], the “dosage of antagonist which reduced the analgesic effect of meperidine by approximately 50 per cent” value [1] is reported as 18.0 mg/kg and the “dosage of antagonist which reduced the analgesic effect of morphine by approximately 50 per cent” value [2] is reported as 21.0 mg/kg.

With `CC(C)=CCN1CC[C@]2(C)c3cc(O)ccc3C[C@H]1C2C` (relative stereo) [4D (levo), cis 1,2,3,4,5,6-hexahydro-3-(3-methyl-2-butenyl)-6,11-dimethyl-8-hydroxy-2,6-methano-3-benzazocine] the “dosage of antagonist which reduced the analgesic effect of meperidine by approximately 50 per cent” value [1] was 1.05 mg/kg and the “dosage of antagonist which reduced the analgesic effect of morphine by approximately 50 per cent” value [2] was 4.3 mg/kg.

For `CC(C)=CCN1CC[C@@]2(C)c3cc(O)ccc3C[C@H]1C2C` (relative stereo) [4E (dextro) hydrochloride, trans 1,2,3,4,5,6-hexahydro-3-(3-methyl-2-butenyl)-6,11-dimethyl-8-hydroxy-2,6-methano-3-benzazocine], the “pH of a 1 percent aqueous solution” value [3] was 5.6, the “pH at which a precipitate formed” value [3] was over 6.9 and the solubility in water ([3]; water) was 5%.

For `CC(C)=CCN1CC[C@@]2(C)c3cc(O)ccc3C[C@H]1C2C` (relative stereo) [4E (dextro), trans 1,2,3,4,5,6-hexahydro-3-(3-methyl-2-butenyl)-6,11-dimethyl-8-hydroxy-2,6-methano-3-benzazocine], the “dosage of antagonist which reduced the analgesic effect of meperidine by approximately 50 per cent” value [1] was 13.0 mg/kg.

For `CC(C)=CCN1CC[C@@]2(C)c3cc(O)ccc3C[C@H]1C2C` (relative stereo) [4E (levo) hydrochloride, trans 1,2,3,4,5,6-hexahydro-3-(3-methyl-2-butenyl)-6,11-dimethyl-8-hydroxy-2,6-methano-3-benzazocine], the “pH of a 1 percent aqueous solution” value [3] was 5.7, the “pH at which a precipitate formed” value [3] was 7.0 and the solubility in water ([3]; water) was 5%.

In the case of `CC(C)=CCN1CC[C@@]2(C)c3cc(O)ccc3C[C@H]1C2C` (relative stereo) [4E (levo), trans 1,2,3,4,5,6-hexahydro-3-(3-methyl-2-butenyl)-6,11-dimethyl-8-hydroxy-2,6-methano-3-benzazocine], the “dosage of antagonist which reduced the analgesic effect of meperidine by approximately 50 per cent” value [1] is reported as 0.55 mg/kg.

`CC(C)=CCN1CC[C@@]2(C)c3cc(O)ccc3C[C@@H]1[C@H]2C` (relative stereo) [4E (racemic) hydrobromide, trans 1,2,3,4,5,6-hexahydro-3-(3-methyl-2-butenyl)-6,11-dimethyl-8-hydroxy-2,6-methano-3-benzazocine] gave a solubility [3, 5] of 10000 µg/mL and a solubility [3, 6] of under 2500 µg/mL.

`CC(C)=CCN1CC[C@@]2(C)c3cc(O)ccc3C[C@@H]1[C@H]2C` (relative stereo) [4E (racemic), trans 1,2,3,4,5,6-hexahydro-3-(3-methyl-2-butenyl)-6,11-dimethyl-8-hydroxy-2,6-methano-3-benzazocine] showed an ED50 ([1]; sc) of 3.3 mg/kg.

In the case of `C=C(C)CN1CC[C@@]2(C)c3cc(O)ccc3C[C@@H]1[C@@H]2C` (relative stereo) [8A hydrochloride, 1,2,3,4,5,6-Hexahydro-3-(2-methyl-2-propenyl)-6,11-dimethyl-8-hydroxy-2,6-methano-3-benzazocine], the solubility [3, 5] is reported as under 10000 µg/mL and the solubility [3, 6] is reported as under 2500 µg/mL.

With `C=CCN1CC[C@@]2(CC)c3cc(O)ccc3C[C@@H]1[C@@H]2C` (relative stereo) [Example 1A, racemic cis 1,2,3,4,5,6-hexahydro-3-allyl-6-ethyl-11-methyl-8-hydroxy-2,6-methano-3-benzazocine] the ED50 ([1]; sc) was 0.049 mg/kg, the ED50 [2] was 0.044 mg/kg and the “dose approximately equivalent to 10 mg. of morphine sulfate as an analgesic” value [4] was about 5 mg. For the same compound, the “analgesia in human subjects” value ([4]; 5 mg./kg. and 10 mg./kg.) was “effective and satisfactory analgesia”.

Work on `C=CCN1CC[C@@]2(CC)c3cc(OC(C)=O)ccc3C[C@@H]1[C@@H]2C` (relative stereo) [Example 1B, racemic cis 1,2,3,4,5,6-hexahydro-3-allyl-6-ethyl-11-methyl-8-acetoxy-2,6-methano-3-benzazocine] yielded an ED50 ([1]; sc) of 0.027 mg/kg.

`CC[C@]12CCN(CC=C(C)C)[C@H](Cc3ccc(O)cc31)[C@@H]2C` (relative stereo) [Example 7A, racemic cis 1,2,3,4,5,6-hexahydro-3-(3-methyl-2-butenyl)-6-ethyl-11-methyl-8-hydroxy-2,6-methano-3-benzazocine] gave an ED50 ([1]; sc) of 10.9 mg/kg, an ED50 [2] of 11.6 mg/kg and a solubility ([3]; dilute hydrochloric acid, mixture of 0.34 ml. of N/2 hydrochloric acid and 19.66 ml. of water, read-out: solubility in dilute hydrochloric acid) of under 2500 µg/mL. For the same compound, the solubility [3, 5] was under 10000 µg/mL, the “dose approximately equivalent to 10 mg. of morphine sulfate as an analgesic” value [4] was about 40 mg and the “analgesia in human subjects” value ([4]; 10 mg./70 kg. to 80 mg./70 kg.) was “effective and satisfactory analgesia”.

Work on `C=C(C)CN1CC[C@@]2(C)c3cc(O)ccc3C[C@@H]1[C@@H]2C` (relative stereo) [Example 8A, 1,2,3,4,5,6-Hexahydro-3-(2-methyl-2-propenyl)-6,11-dimethyl-8-hydroxy-2,6-methano-3-benzazocine] yielded an ED50 ([1]; sc) of 0.094 mg/kg and an ED50 [2] of 0.19 mg/kg.

For `CCC12CCN(CC=C(C)C)C(Cc3ccc(O)cc31)C2C` (stereo not drawn) [7D (dextro cis), dextro cis 1,2,3,4,5,6-hexahydro-(3-methyl-2-butenyl)-6-ethyl-11-methyl-8-hydroxy-2,6-methano-3-benzazocine], the “dosage of antagonist which reduced the analgesic effect of meperidine by approximately 50 per cent” value [1] was 19.5 mg/kg.

With `CCC12CCN(CC=C(C)C)C(Cc3ccc(O)cc31)C2C` (stereo not drawn) [7D (levo cis), levo cis 1,2,3,4,5,6-hexahydro-(3-methyl-2-butenyl)-6-ethyl-11-methyl-8-hydroxy-2,6-methano-3-benzazocine] the “dosage of antagonist which reduced the analgesic effect of meperidine by approximately 50 per cent” value [1] was 3.1 mg/kg.

In the case of “racemic cis 1,2,3,4,5,6-hexahydro-3-(3-methyl-2-butenyl)-6-ethyl-11-methyl-8-cyclopropanecarbonyloxy-2,6-methano-3-benzazocine hydrochloride [Example 7C]”, the “dosage of antagonist which reduced the analgesic effect of meperidine by approximately 50 per cent” value [1] is reported as 0.0022 mg/kg.
